Experimental data from article PMC11371785 (Frontiers in Pharmacology, 2024).
Marks after values point to notes of the source that are not given here.

Tests used:
Plasmodium berghei ANKA [1] = experiment: Peter's 4-day suppressive test; assay type: in vivo; conditions: 4 days, D4; for Suppressive parasitemia (%): n = 5, ±SEM
Experimental: (§1) Twenty-five (25) albino mice (weighing 22 ± 2 g) were randomly divided into five (5) groups of five animals per group (n = 5). Parasitized blood was obtained from infected donor mouse with rising parasitaemia (≥ 20%) by cardiac puncture and the infected blood was diluted with phosphate saline glucose buffer (PSG-mouse) to attain an estimate of 5 × 10^7 red blood cells per ml. Then, 0.2 mL of inoculum containing 1 × 10^7 infected RBCs was injected into the abdominal cavity of experimental animals by intraperitoneal (ip) injection.
(§2) All drugs were administered orally for 4 days.
(§3) The chemo-suppressive effect of HA in mice infected with P. berghei was assessed using Peter’s 4-day suppressive test. The mice were infected with the malaria parasite inoculum (1 × 10^7 P.berghei ANKA) on the first day of the experiment (D0) and treated as indicated in the section above on Animal Grouping and Drug Administration after 2 h post-infection. The treatment continues for another three consecutive days. Each mouse’s parasitaemia level was assessed 96 h after infection (D4). Animals in each group had their PCV, rectal temperature, and body weight measured both before and after the experiment.
Parasitaemia was determined by counting the number of infected RBCs (minimum of four fields per slide) using a light microscope with an objective lens magnification power of 1,000x. Percentage parasitaemia and percentage chemo-suppression were calculated using the modified Peters and Robinson formula ([Nyandwaro et al., 2020]): % parasitemia=number of parasitized RBCs/total number of RBC count×100 % chemo−suppression=% parasitemia in negative control− % parasitemia in study group/% parasitemia in negative control×100

Plasmodium berghei ANKA [2] = experiment: Mean survival time of P. berghei-infected mice; assay type: in vivo; conditions: 4 days, monitored 30 days, n = 5, ±SEM
Experimental: as §1, §2
The survival rate was monitored from the first day of the treatment to 30 days. Each mouse’s mortality was monitored and recorded in days. The mean survival time (MST) of mice in each group was determined, as shown below. MST=sum of survival time of all mice in a group in days/total number of mice in a group

[3] = test system: Plasmodium berghei infected mice; experiment: Body weight, rectal temperature and packed cell volume in the suppressive test; assay type: in vivo, Mus musculus; conditions: SEM; for Weight (g) initial / Temperature (°C) initial: before the experiment; for Weight (g) initial / Temperature (°C) initial / Weight (g) final / Temperature (°C) final: n = 5; for PCV (%) DAY 0: first day of infection; for Temperature (°C) initial / Temperature (°C) final: rectal; for Percentage change in PCV (%) DAY 0 / Percentage change in temperature (%) / Weight (g) final / PCV (%) DAY 4 / Percentage change in weight (%) / Temperature (°C) final / PCV (%) DAY 9 / Percentage change in PCV (%) DAY 9: 4 days; for Weight (g) final / Temperature (°C) final: after the experiment; for PCV (%) DAY 4: fifth day after infection; for Percentage change in weight (%): infected mice; for PCV (%) DAY 9 / Percentage change in PCV (%) DAY 9: tenth day after infection
Experimental: as §1, §2, §3
Blood samples were taken from each mouse’s tail using heparinized capillary tubes, sealed, and then put into a micro haematocrit centrifuge to calculate the packed cell volume of the blood. After being centrifuged for 5 min at 12,000 rpm, the blood samples’ PCV was calculated using the following formula: Packed Cell Volume=volume of erythrocyes in a given volume of blood/total volume of blood×100
The body weight and rectal temperature of each mouse were also determined using a sensitive digital weighing balance and rectal thermometer, respectively.

[4] = test system: bone marrow cells of mice; experiment: Micronucleus (MN) assay; conditions: SEM
Experimental: (§4) The negative control group (group a) was treated with 0.2 mL of the vehicle, while the positive control group (group g) was also treated with the 20 mg/kg dosage of cyclophosphamide. […] The blood samples were collected for haematological analysis, while the liver and kidney were also collected for histopathological analysis and fixed in 10% formalin.
The animals used for the subacute toxicity test were also used for the MN assay because the treatment follows the same procedure, but the positive control, cyclophosphamide (group g) for MN, is a single-dose treatment that was given intraperitoneally. The MN assay was carried out as described by Jain and Pandey ([Jain and Pandey, 2019]), four animals were sacrificed from each group by cervical dislocation, and both femurs were removed. The epiphyses were removed from the femur, and the bone marrow was flushed with fetal bovine serum (FBS) into Eppendorf tubes (1.5 mL). After a light tap to ensure appropriate cell dispersion, it was centrifuged at 2,000 rpm for 5 minutes. The pellet was suspended in another 1 mL of FBS in the Eppendorf tube, thoroughly mixed using a micropipette, and centrifuged once more at the same rate after the supernatant was discarded. Once more, the supernatant was removed, and the pellet was mixed with 0.5 mL of FBS before a few drops of the viscous mixture were dropped on a clean, oil-free slide. This drop was spread on the slide and allowed to air dry.
The slides were stained with 0.4% May-Grunewald stain for 3-4 min and were immediately transferred into another coupling jar containing May-Grunewald and distilled water (ratio 1:1) and allowed to stain for another 3-4 min. The slides were rinsed in distilled water and allowed to dry completely. Then, it was also stained in 5% Giemsa stain for 5 min, rinsed in distilled water, and allowed to dry completely. A minimum of 1,000 cells from each mouse were examined for micronuclei in polychromatic erythrocytes (MNPCE) using a light microscope at a magnification of 1,000X (oil immersion). The relative size of the erythrocytes and the difference in staining between PCEs (bluish-purple) and normochromatic erythrocytes (NCEs, pink-orange) are used to distinguish between them.

[5] = Weight of experimental animals for toxicity test; conditions: SEM
Experimental: as §4

liver and kidney of mice = experiment: Subacute toxicity test: liver and kidney histopathology; conditions: 20 mg/kg, positive control (group g)
Experimental: as §4
The tissues were sliced into small pieces not more than 4 mm thick and then submerged in 10% formal saline for 24 h to fix, according to the protocols of [Avwioro et al., (2010)] for histopathology investigations. The tissue processing was carried out automatically using an automatic tissue processor (Leica TP 1020) by letting the tissues pass through several reagents: 10% formal saline was used in Stations 1 and 2, and alcohol in Stations 3 through 7 was used to dehydrate the tissues. The tissues were then moved into Stations 10 to 12, which contained wax for infiltration or impregnation, after passing through Stations 8 and 9, which contained xylene for the purpose of […]. Tissues stayed in each station for 1 hour during the 12-h duration of these operations. The tissues were then covered with molten paraffin wax, allowed to cool on ice, and then sectioned at a 4-micrometer interval. These parts were picked up using clean, labeled slides and floated in a water bath set at 55°C. […]

[6] = 20 mg/kg/bwt single dose intraperitoneally

CCCCCCCCCCCCCCCC(=O)O [HA, n-Hexadecanoic acid]
Percentage chemosuppression (%) (Plasmodium berghei ANKA [1]; 10 mg/kg oral): 71.58% | Suppressive parasitemia (%) (Plasmodium berghei ANKA [1]; 10 mg/kg oral): 1.89 ± 0.30^ab % | Percentage chemosuppression (%) (Plasmodium berghei ANKA [1]; 50 mg/kg oral): 83.80% | Suppressive parasitemia (%) (Plasmodium berghei ANKA [1]; 50 mg/kg oral): 1.08 ± 0.29 ^a % | Percentage chemosuppression (%) (Plasmodium berghei ANKA [1]; 100 mg/kg oral): 89.74% | Suppressive parasitemia (%) (Plasmodium berghei ANKA [1]; 100 mg/kg oral): 0.68 ± 0.18 ^a % | MST (days) (Plasmodium berghei ANKA [2]; 10 mg/kg oral): 15.60 ± 2.62 ^d days | MST (days) (Plasmodium berghei ANKA [2]; 50 mg/kg oral): 9.20 ± 1.16 ^d days | MST (days) (Plasmodium berghei ANKA [2]; 100 mg/kg oral): 11.40 ± 1.6 ^d days | Weight (g) initial ([3]; 10 mg/kg group): 22.88 ± 0.47 g | PCV (%) DAY 0 ([3]; 10 mg/kg group): 42.63 ± 1.25% | Temperature (°C) initial ([3]; 10 mg/kg group): 32.26 ± 0.33 °C | Percentage change in PCV (%) DAY 0 ([3]; 10 mg/kg oral): 6.00 ± 13.99% | Percentage change in temperature (%) ([3]; 10 mg/kg oral): −6.08 ± 1.60% | Weight (g) final ([3]; 10 mg/kg oral): 19.24 ± 0.81 g | PCV (%) DAY 4 ([3]; 10 mg/kg oral): 43.75 ± 5.11% | Percentage change in weight (%) ([3]; 10 mg/kg oral): −15.99 ± 2.63% | Temperature (°C) final ([3]; 10 mg/kg oral): 30.28 ± 0.24 °C | PCV (%) DAY 9 ([3]; 10 mg/kg oral): 23.12 ± 0.46% | Percentage change in PCV (%) DAY 9 ([3]; 10 mg/kg oral): −45.54 ± 3.26% | Weight (g) initial ([3]; 50 mg/kg group): 24.48 ± 0.71 g | PCV (%) DAY 0 ([3]; 50 mg/kg group): 46.60 ± 2.88% | Temperature (°C) initial ([3]; 50 mg/kg group): 32.20 ± 0.32 °C | Percentage change in PCV (%) DAY 0 ([3]; 50 mg/kg oral): 3.54 ± 3.53% | Percentage change in temperature (%) ([3]; 50 mg/kg oral): −6.56 ± 1.17% | Weight (g) final ([3]; 50 mg/kg oral): 22.94 ± 1.24 g | PCV (%) DAY 4 ([3]; 50 mg/kg oral): 48.20 ± 3.14% | Percentage change in weight (%) ([3]; 50 mg/kg oral): −6.46 ± 2.75% | Temperature (°C) final ([3]; 50 mg/kg oral): 30.08 ± 0.37 °C | PCV (%) DAY 9 ([3]; 50 mg/kg oral): 22.93 ± 4.57% | Percentage change in PCV (%) DAY 9 ([3]; 50 mg/kg oral): −51.35 ± 8.51% | Weight (g) initial ([3]; 100 mg/kg group): 22.19 ± 0.40 g | PCV (%) DAY 0 ([3]; 100 mg/kg group): 40.94 ± 2.51% | Temperature (°C) initial ([3]; 100 mg/kg group): 32.20 ± 0.06 °C | Percentage change in PCV (%) DAY 0 ([3]; 100 mg/kg oral): 5.03 ± 2.78% | Percentage change in temperature (%) ([3]; 100 mg/kg oral): −6.39 ± 1.59% | Weight (g) final ([3]; 100 mg/kg oral): 19.99 ± 0.31 g | PCV (%) DAY 4 ([3]; 100 mg/kg oral): 43.00 ± 5.03% | Percentage change in weight (%) ([3]; 100 mg/kg oral): −9.77 ± 2.56% | Temperature (°C) final ([3]; 100 mg/kg oral): 30.14 ± 0.46 °C | PCV (%) DAY 9 ([3]; 100 mg/kg oral): 25.42 ± 12.08% | Percentage change in PCV (%) DAY 9 ([3]; 100 mg/kg oral): −39.10 ± 10.67% | MnNCE (micronucleated normochromatic erythrocytes) ([4]; 2 mg/kg oral, 14 days): 3.42 ± 0.30 | MnPCE (micronucleated polychromatic erythrocytes) ([4]; 2 mg/kg oral, 14 days): 6.25 ± 0.88 | MnNCE (micronucleated normochromatic erythrocytes) ([4]; 5 mg/kg oral, 14 days): 3.17 ± 0.74 | MnPCE (micronucleated polychromatic erythrocytes) ([4]; 5 mg/kg oral, 14 days): 9.08 ± 1.30 | MnNCE (micronucleated normochromatic erythrocytes) ([4]; 10 mg/kg oral, 14 days): 6.67 ± 2.25 | MnPCE (micronucleated polychromatic erythrocytes) ([4]; 10 mg/kg oral, 14 days): 11.58 ± 2.00 | MnNCE (micronucleated normochromatic erythrocytes) ([4]; 50 mg/kg oral, 14 days): 7.19 ± 0.98 | MnPCE (micronucleated polychromatic erythrocytes) ([4]; 50 mg/kg oral, 14 days): 18.86 ± 1.74 | MnNCE (micronucleated normochromatic erythrocytes) ([4]; 100 mg/kg oral, 14 days): 8.00 ± 0.84 | MnPCE (micronucleated polychromatic erythrocytes) ([4]; 100 mg/kg oral, 14 days): 23.11 ± 0.58

O=P1(N(CCCl)CCCl)NCCCO1 (stereo not shown) [CYP, Cyclophosphamide]
Weight (g) final ([5]; 20 mg/kg (positive control), n = 5): 24.43 ± 0.25 g | Percentage change in weight (%) ([5]; 20 mg/kg (positive control), toxicity test): −0.50 ± 0.34% | Weight (g) initial ([5]; 20 mg/kg group (positive control), toxicity test, n = 5): 24.53 ± 0.27 g | Kidney histological presentation (liver and kidney of mice): normal architecture | Liver histological presentation (liver and kidney of mice): normal architecture | MnNCE (micronucleated normochromatic erythrocytes) [4, 6]: 100.9 ± 11.99 | MnPCE (micronucleated polychromatic erythrocytes) [4, 6]: 225.9 ± 8.84 | Others (other abnormalities) [4, 6]: 119.2 ± 19.59 | PCE: NCE (polychromatic erythrocytes/normochromatic erythrocytes ratio) [4, 6]: 0.51 ± 0.04
